According to patent US7919077B2, “Pharmaceutical compositions comprising CCL2 and use of same for the treatment of inflammation” (Yeda Research and Development Co. Ltd., priority 2006, dated 2011):

Legend:
naive lymphocytes = assay: Intravital microscopy of mouse subiliac LN: lymphocyte rolling and sticking in HEVs; format: in vivo, C57BL/6 mice
Method: Intravital microscopy of mouse subiliac LN—Mice were anesthetized by intraperitoneal injection of 1 mg/ml xylazine and 5 mg/ml ketamine. The right femoral artery was catheterized. The left subiliac LN was prepared for IVM as previously described [Carriere et al., Cancer Res. (2005) 65:11639-11648; M'Rini et al., J Exp Med. (2003) 198:1301-1312], and the mouse was then transferred to a customized intravital video microscopy setup (INM 100; Leica Microsystems SA, Rueil-Malmaison, France) equipped with water immersion objectives (HCX APO; Leica Microsystems SA, Rueil-Malmaison, France). Fluorescent events in the LN microcirculation were visualized and recorded by a silicon-intensified target camera (Hamamatsu Photonics, Massy, France) and stored on DVCAM video tapes (DSR-11 Sony, IEC-ASV, Toulouse, France).
For visualization of naive lymphocyte interactions with LN vascular endothelium, naïve lymphocytes obtained from single T and B cell suspensions of a control C57BL/6 pool of subiliac, axillary, brachial and mesenteric LNs were incubated in the presence or absence of CCL2 (R&D Systems, Lille, France; 1 ng/ml, 30 minutes, 37° C.), fluorescently labeled by calcein AM (Molecular Probes-Invitrogen, Cergy Pontoise, France; 0.25 microM, 5 min, 37° C.) and then injected into the right femoral artery. Cell behavior in LN venules was assessed as previously described [Carriere et al., supra; M'Rini et al., supra]. The rolling fraction was determined as the percentage of cells that rolled along the vascular lining in the total flux of cells per venule. The sticking fraction was determined as the percentage in rolling cells of cells firmly adherent for at least 10 seconds or 1 minute.

[1] = Adjuvant arthritis (AA) rat model; format: in vivo, Lewis rats; conditions: rats; CCL2 240 ng daily day 0 to day 5; scored from day 10; FIG. 9
Method: Adjuvant Arthritis (AA) induction, assessment and treatment with CCL2-—AA was induced as previously described [Kannan, Theor Biol Med Model. (2005) 2:17] using 1 mg per rat of heat-killed Mt strain H37Ra (Difco). Each experimental and control group included at least eight rats. The day of AA induction was designated as day 0 and disease severity was assessed by direct observation of all four limbs in each animal. An observer blind to the experimental procedure scored AA for clinical manifestation of disease. A relative score between 0 and 4 was assigned to each limb, based on the degree of joint inflammation, redness and deformity. The maximum possible score for an individual animal was 16 [Kannan, supra].
Immediately following AA induction, rats were divided into two groups that were injected daily (from day 0 to day 5) with low dose CCL2 (240 ng in 300 μl of PBS) or PBS as control. Starting from day 10 post induction, the disease was scored as described hereinabove.
Results were presented as the mean±SEM of the difference between the two values for all the animals in each group. Experiments were repeated at least three times and produced similar results.

naïve T cells = assay: Transwell migration assay, naïve T cells; format: cell-based, mice; conditions: cells pre-treated 30 min with CCL2 0.1 ng/ml, 3 hours migration
Method: Stimulation of T cells—Cell stimulation was performed as previously described [Flaishon et al., J Biol Chem. (2001) 276:46701-46706]. Briefly, 1×10^7 T cells were suspended in 1 ml DMEM cell medium containing 10% (v/v) Fetal Calf Serum (FCS). Next, 0.1 ng/ml CCL2 (CytoLab) was added to each tube and the tubes were immediately placed in 37° C. for 30 minutes. Immediately after stimulation, cells were washed and handled as described hereinbelow.
Transwell migration assay—Chemotaxis was assayed using Transwell chambers as was previously described [Flaishon, L. F., et al., J. Biol. Chem. 276:46701 (2001)]. Naive T cells were suspended for 30 minutes with RPMI medium with or without CCL2 (0.1 ng/ml, Peprotech Inc., Rocky Hill, N.J.), and thereafter placed in the upper chamber of a 24 well Transwell plate, and allowed to migrate towards CXCL12 (SDF-1, 0.1 mg/ml PeproTech, Inc., Rocky Hill, N.J.) or to the secondary lymphoid tissue chemokine (SLC, CCL21, 0.4 mg/ml; PeproTech, Inc., Rocky Hill, N.J.), placed in the lower chamber. Following 3 hours, the number of the migrating cells found in the lower chamber was evaluated by FACS (FACS calibur, BD bioscience). Assay was repeated 3 times and results were analyzed as percent migration, being the number of migrating cells in the lower chamber as a fraction of the input cells in the upper chamber.

TNBS colitis mouse model = format: in vivo, mice; conditions: for Diarrhea (# of mice): 8 mice; for Colitis score: Wallace score 0 to 16
Method: TNBS colitis model and treatment with CCL2—TNBS colitis was induced as previously described [Ohkawara et al. (2002) Gastroenterology, 123:256]. Briefly, mice were anesthetized by i.p. injection (35 μl per mouse) of a mixture containing 85% ketamine and 15% xylazine (20 mg/ml). Next, 100 μl of TNBS [55% volume of 50% ethanol mixed with 45% volume of TNBS solution ([…]; Sigma-Aldrich)] was infused into the colonic lumen (about 3.5 cm of the anal verge) via 1 ml syringe attached to a feeding needle. Treated mice were weighted daily and visually inspected for clinical symptoms, such as rectal bleeding and diarrhea.
TNBS mice were divided into 6 groups. CCL2 groups (10 mice in each group) were injected i.p. daily with different CCL2 concentrations (30 ng, 60 ng or 180 ng) in 200 μl of PBS from day 0 (immediately after TNBS induction) to day 6. Control groups (10 mice in each group) were injected i.p. daily with 200 μl PBS alone. Additionally, 5 mice were injected i.p. daily with dexamethasone; and 1 mouse which was not treated and served as negative control for future histology and weight.
Macroscopic and histological assessment of colitis—An observer blind to the experimental procedure scored colitis for clinical manifestation of disease. The colon was macroscopically examined (×5 magnification) to evaluate the macroscopic lesions according to the Wallace criteria. The Wallace score ranks macroscopic colon lesions on a scale from 0 to 16 based on criteria reflecting inflammation, such as hyperemia, thickening of the bowel and the extent of ulceration. The colon was cut lengthwise and fixed in 4% paraformaldehyde for future histology.

effector T cells = assay: Transwell migration of effector T cells (data not shown); format: cell-based, mice; conditions: low dose CCL2
[2] = CCL2 30 ng i.p. daily day 0 to day 6
[3] = CCL2 60 ng i.p. daily day 0 to day 6
[4] = CCL2 180 ng i.p. daily day 0 to day 6

For “CCL2: mammalian (e.g., human) CCL2 protein, GenBank NM_002982 / NP_002973; murine CCL2 used in the asthma model”, the “number of firmly bound lymphocytes in the PLN venular tree” value (naive lymphocytes; 30 minutes after injection of the fluorescent cells, FIGS. 5f-g) was “striking reduction”, the “L-selectin mediated rolling in HEVs (rolling fraction)” value (naive lymphocytes; lymphocytes pre-treated with CCL2 1 ng/ml 30 minutes, FIG. 5b) was “did not significantly alter” and the “sticking fraction 10 seconds” value (naive lymphocytes; lymphocytes pre-treated with CCL2 1 ng/ml 30 minutes, vs control, FIG. 5c) was “comparable”. For the same substance, the “percentage of cells which remained adherent 1 minute after initial arrest” value (naive lymphocytes; lymphocytes pre-treated with CCL2 1 ng/ml 30 minutes, vs control, FIG. 5e) was “severe reduction”, the “percentage of cells which remained adherent 30 seconds after initial arrest” value (naive lymphocytes; lymphocytes pre-treated with CCL2 1 ng/ml 30 minutes, vs control, FIG. 5d) was “severe reduction” and the “adjuvant arthritis disease score (max 16)” value [1] was “significantly inhibited the onset of the disease”. The “inhibition of migration of naïve T cells towards CXCL12” value (naïve T cells; FIG. 2a) was 40-50%, the “inhibition of migration of naïve T cells towards CCL21” value (naïve T cells; FIG. 2b) was 40-50% and the “Colon length (cm)” value (TNBS colitis mouse model; [2]) was 6.25 ± 0.65 cm. For the same substance, the “Diarrhea (# of mice)” value (TNBS colitis mouse model; [2]) was 4 # of mice, the Colitis score (TNBS colitis mouse model; [2]) was 10.875 ± 4.29 and the “Colon length (cm)” value (TNBS colitis mouse model; [3]) was 7.88 ± 0.35 cm. For the same substance, the “Diarrhea (# of mice)” value (TNBS colitis mouse model; [3]) was 0 # of mice, the Colitis score (TNBS colitis mouse model; [3]) was 2.13 ± 1.89 and the “Colon length (cm)” value (TNBS colitis mouse model; [4]) was 7.88 ± 0.58 cm. For the same substance, the “Diarrhea (# of mice)” value (TNBS colitis mouse model; [4]) was 0 # of mice, the Colitis score (TNBS colitis mouse model; [4]) was 2.88 ± 1.89 and the “TNBS colitis disease severity (diarrhea, colon shortening)” value (TNBS colitis mouse model; mice, CCL2 i.p. daily day 0 to day 6, Table 2, FIG. 10) was “significantly inhibited the disease”. The “CCL21 induced transwell migration of effector cells” value (effector T cells) was “down-regulated” and the “CXCL12 induced transwell migration of effector cells” value (effector T cells) was “down-regulated”.
